Experimental data published in publication PMC3269786 (Neuron, 2012).
Blank lines part the entries; values can stand above or below the compound they belong to.

Experiments:
GHSR1a + DRD2 = GHSR1a + DRD2 (Homo sapiens, UniProt P14416+Q92847); format: cell-based
humans = settings: ref Korner et al., 2003; cited from earlier work
[1] = tested on: mice (ghsr+/+, ghsr−/−, ghrelin+/+, ghrelin−/−); assay: Food intake experiments in mice; format: in vivo, mouse; settings: for food intake compared to vehicle: 0.5 mg/kg i.p.
[2] = tested on: primary cultures of hypothalamic neurons; assay: Fluo-4 Ca2+ mobilization in primary hypothalamic neurons; format: cell-based, mouse; settings: quinpirole 10 µM; ghrelin 100 nM after washing
[3] = target: GHSR1a and DRD2 co-expressed in SH-SY5Y cells (SH-GHSR1a) (Homo sapiens, UniProt P14416+Q92847); format: cell-based; settings: quinpirole 10 µM; pretreatment 5 min
SNAP-F279L-GHSR1a = SNAP-F279L-GHSR1a (UniProt Q92847); assay: FRET or BRET
[4] = target: SNAP-GHSR1a (growth hormone secretagogue receptor / ghrelin receptor with a SNAP-tag at the N-terminus) (UniProt Q92847); assay: FRET or BRET
SNAP-M213K-GHSR1a = SNAP-M213K-GHSR1a (UniProt Q92847); assay: FRET or BRET
rats = settings: 6 day central infusion, ref Petersen et al., 2009; cited from earlier work
SNAP-GHSR1a = SNAP-GHSR1a (Homo sapiens, UniProt Q92847); assay: Tr-FRET red-ghrelin binding assay in HEK293 cells expressing SNAP-GHSR1a
Chain of SNAP-GHSR1a (Q92847 whole entry): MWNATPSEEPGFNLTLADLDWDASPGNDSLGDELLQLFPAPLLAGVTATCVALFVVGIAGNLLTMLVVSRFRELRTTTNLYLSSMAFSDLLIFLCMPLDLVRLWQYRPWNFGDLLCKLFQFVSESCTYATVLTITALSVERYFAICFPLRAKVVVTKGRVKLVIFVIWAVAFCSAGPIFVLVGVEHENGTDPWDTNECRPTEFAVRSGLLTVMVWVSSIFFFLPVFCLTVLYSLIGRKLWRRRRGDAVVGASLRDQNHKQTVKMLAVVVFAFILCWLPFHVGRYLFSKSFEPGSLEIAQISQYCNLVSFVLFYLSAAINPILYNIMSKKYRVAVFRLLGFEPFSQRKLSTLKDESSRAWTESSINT

Chain of HA-CLIP-DRD2 (P14416 whole entry): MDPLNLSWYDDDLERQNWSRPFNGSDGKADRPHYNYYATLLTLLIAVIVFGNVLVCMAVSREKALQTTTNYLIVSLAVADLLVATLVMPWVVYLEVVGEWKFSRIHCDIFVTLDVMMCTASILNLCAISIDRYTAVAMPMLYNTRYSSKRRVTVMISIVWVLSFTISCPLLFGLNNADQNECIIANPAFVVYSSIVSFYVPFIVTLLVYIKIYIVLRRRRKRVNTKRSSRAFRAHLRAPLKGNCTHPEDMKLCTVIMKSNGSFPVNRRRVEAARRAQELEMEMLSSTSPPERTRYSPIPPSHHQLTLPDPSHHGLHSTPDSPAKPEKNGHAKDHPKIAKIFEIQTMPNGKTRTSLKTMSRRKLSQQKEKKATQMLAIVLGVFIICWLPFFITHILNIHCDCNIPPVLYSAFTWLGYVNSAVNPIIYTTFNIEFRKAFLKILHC
Chain of GHSR1a + DRD2 (Q92847 whole entry): as the sequence (Q92847 whole entry) above
Chain of GHSR1a + DRD2 (P14416 whole entry): as the sequence (P14416 whole entry) above
Chain of SNAP-M213K-GHSR1a (Q92847 whole entry M213K, the tested form may be a part): as the sequence (Q92847 whole entry) above, with M213K counted along it
Chain of GHSR1a and DRD2 co-expressed in SH-SY5Y cells (SH-GHSR1a) (Q92847 whole entry): as the sequence (Q92847 whole entry) above
Chain of GHSR1a and DRD2 co-expressed in SH-SY5Y cells (SH-GHSR1a) (P14416 whole entry): as the sequence (P14416 whole entry) above
Chain of SNAP-GHSR1a (growth hormone secretagogue receptor / ghrelin receptor with a SNAP-tag at the N-terminus) (Q92847 whole entry): as the sequence (Q92847 whole entry) above
Chain of SNAP-F279L-GHSR1a (Q92847 whole entry F279L): as the sequence (Q92847 whole entry) above, with F279L counted along it

effect on dopamine-induced Ca2+ signaling (GHSR1a + DRD2): blocked
Compound: NCCOB(c1ccccc1)c1ccccc1 [2-aminoethoxydiphenyl borate]

Compound: CN1CCc2cc(Cl)c(O)cc2[C@@H](c2ccccc2)C1 [SCH23390]
effect on dopamine-induced Ca2+ signaling (GHSR1a + DRD2): ineffective

Compound: Oc1cc2c(c(Cl)c1O)CCNCC2c1ccccc1 (stereo not drawn) [SKF81297]
effect of preincubation on ghrelin-induced Ca2+ response (GHSR1a + DRD2; 30 min preincubation, ghrelin 100 nM): fails to inhibit

agonist-induced increase of [Ca2+]i (GHSR1a + DRD2; cells co-expressing GHSR1a + DRD2): dose-dependent mobilization of Ca^2+
Compound: C=CCN1C[C@H](C(=O)N(CCCN(C)C)C(=O)NCC)C[C@@H]2c3cccc4[nH]cc(c34)C[C@H]21 [cabergoline]
body weight in treated humans (humans): weight loss
food intake compared to vehicle ([1]; ghrelin+/+ and ghrelin−/− mice): significantly reduced food intake irrespective of genotype
food intake compared to vehicle ([1]; ghsr+/+ mice, within 2 h): markedly reduced
food intake compared to vehicle ([1]; ghsr−/− mice): unaffected
food intake ([1]; mice, cabergoline 0.5 mg/kg and 2 mg/kg): dose dependent suppression of food intake

Compound: CCCCCCCC(=O)OC[C@H](NC(=O)[C@H](CO)NC(=O)CN)C(=O)N[C@@H](Cc1ccccc1)C(=O)N[C@@H](CC(C)C)C(=O)N[C@@H](CO)C(=O)N1CCC[C@H]1C(=O)N[C@@H](CCC(=O)O)C(=O)N[C@@H](Cc1c[nH]cn1)C(=O)N[C@@H](CCC(N)=O)C(=O)N[C@@H](CCCNC(=N)N)C(=O)N[C@H](C(=O)N[C@@H](CCC(N)=O)C(=O)N[C@@H](CCC(N)=O)C(=O)N[C@@H](CCCNC(=N)N)C(=O)N[C@@H](CCCCN)C(=O)N[C@@H](CCC(=O)O)C(=O)N[C@@H](CO)C(=O)N[C@@H](CCCCN)C(=O)N[C@@H](CCCCN)C(=O)N1CCC[C@H]1C(=O)N1CCC[C@H]1C(=O)N[C@@H](C)C(=O)N[C@@H](CCCCN)C(=O)N[C@@H](CC(C)C)C(=O)N[C@@H](CCC(N)=O)C(=O)N1CCC[C@H]1C(=O)N[C@@H](CCCNC(=N)N)C(=O)O)C(C)C [ghrelin]
Ca2+ response in primary hypothalamic neurons [2]: immediate Ca^2+ response

Compound: CCN1CCC[C@H]1CNC(=O)c1c(O)c(Cl)cc(Cl)c1OC [raclopride]
effect on quinpirole-induced Ca2+ signal [3]: Attenuation of the Ca^2+ signal
effect on dopamine-induced Ca2+ signaling (GHSR1a + DRD2): dose-dependently inhibited

Compound: CCN1CCCC1CNC(=O)c1cc(S(N)(=O)=O)ccc1OC (stereo not drawn) [sulpiride]
effect on dopamine-induced Ca2+ signaling (GHSR1a + DRD2): dose-dependently inhibited
effect on ghrelin-induced Ca2+ mobilization (GHSR1a + DRD2; GHSR1a+DRD2 cells, ghrelin 100 nM): partially inhibited

FRET50 (SNAP-F279L-GHSR1a): 0.49
FRET50 [4]: 0.086
FRET50 (SNAP-M213K-GHSR1a): 0.79
Compound: HA-CLIP-DRD2 (from UniProt P14416 1-443) (receptor)

Compound: JMV2959
effect on cabergoline-induced suppression of food intake ([1]; ghsr+/+ mice, JMV2959 0.2 mg/kg i.p. 30 min before cabergoline 0.5 mg/kg): prevented
effect on food intake in cabergoline treated mice ([1]; ghsr−/− mice, JMV2959 0.2 mg/kg i.p. 30 min before cabergoline 0.5 mg/kg): unaffected

Compound: [D-Arg1,D-Phe5,D-Trp7,9,Leu11]-substance P
food intake and weight gain (rats): modest reductions in food intake and weight gain

inhibition of red ghrelin binding (SNAP-GHSR1a): ineffective
Compound: des-acyl ghrelin
